Measurements: US20180161310A1, “COMPOUNDS AND METHODS FOR THE TREATMENT OF NEUROLOGICAL DISORDERS” (Teleos Therapeutics, LLC, priority 2016, published 2018)
Where “and” joins values, the source holds several entries; their conditions need not be identical. Equal values may be shown once. Read-outs that look alike come from different tables or passages of the source.

Key:
zebrafish larvae = assay type: in vivo; settings: 5 mM
Text: In an effort to determine how pharmacological inhibition of KCC2 affects zebrafish behaviors, 7 days post-fertilization (dpf) zebrafish larvae can be treated with two analogs of the selective KCC2 inhibitor, VU0463271 and VU0240551, and their behavioral responses in a battery of behavioral assays can be assessed. These behavioral assays can include a series of visual and acoustic stimuli presented to larval zebrafish in various contexts and combinations to elicit robust and reproducible patterns of activity. For example, behavioral assays can include two acoustic-stimulus-response (ASR1 and ASR2) assays, six visual-stimulus-response (VSR1-VSR6) assays, and three assays that combine acoustic and visual stimulus responses (AVSR1-AVSR3). Together, such a battery of behavioral assays use six stimuli, including red light (600 nm), blue light (420 nm), violet light (405 nm), green light (525 nm), low-intensity sound (60 dB) and high-intensity sound (70 dB). Behavioral responses of the larval zebrafish can be measured by a motion index (MI) that quantifies the motor activity of at least about 8 zebrafish larvae in each well of a 96-well plate.
Referring to FIGS. 1A-1B, zebrafish behavioral profiles can include a battery of individual behavioral assays labeled ASR1, AVSR1, ASR2, VSR1, VSR2, VSR3, VSR4, AVSR2, VSR5, AVSR3, and VSR6, as described herein. These behavioral assays can be combined to form a Motion Index (MI), which is a quantification of the motor activity of at least about 8 zebrafish larvae in each well of a 96-well plate. As shown in the representative images of FIGS. 1A-1B, zebrafish larvae were treated with DMSO (control), VU0463271 (FIG. 1A), or pentylentetrazol or PTZ (FIG. 1B).
Treatment with increasing doses of VU0463271 induced a unique and dose-dependent profile of behavioral responses, detectable at 2.5 μM and 5 μM. […] This relatively low concentration of VU0463271 elicited a reproducible behavioral profile with altered sensitivity of the fish larvae to specific combinations of stimuli. […] The increased MI in the AVSR1 and AVSR3 assays due to VU0463271 treatment reflects a seizure-like hyperexcitability in the larval fish.
Additionally, seizures have been induced in 7 dpf zebrafish larvae using pentylentetrazol (PTZ) treatment, and motor and electroencephalographic (EEG) responses were consistent with seizure phenotypes.

[1] = system: cultured rat hippocampal neurons; assay: Gramicidin perforated patch clamp in cultured hippocampal neurons; assay type: cell-based
Description: Referring to FIG. 9, representative IV curves were generated (current-voltage curves) to characterise the intrinsic excitability of TT0023831 and TT0042607 in gramicidin perforated patch clamp studies, and to investigate whether the effects of the three hit compounds identified in the above-described suppressor screens translate to rodent models. The effects of these compounds were evaluated in cultured rat hippocampal neurons using the gramicidin perforated patch technique. The GABAA agonist, muscimol (1 μM), was used to measure EGABA values under basal conditions (FIG. 9). Perfusion of 30 μM TT0011235 potentiated GABAA-mediated currents, both muscimol-activated and endogenous post-synaptic potentials, and shifted the EGABA values (FIG. 9 and Appendix B). […] Treatment with 30 μM TT0042607 slowed the upstroke and repolarization, reduced the input resistant and thus, and reduced the number of open channels.

mouse 6 Hz 44 mA model = assay: Mouse 6 Hz 44 mA model of epilepsy; assay type: in vivo; settings: animals protected from seizures / number tested
Description: (§1) TT0023831 and TT0042607 were tested in mammalian models of epilepsy. The two compounds were tested in the mouse 6 Hz 44 mA model and the mouse maximal electroshock (MES) model. A range of doses was examined, and results were reported as the number of animals protected from seizures out of the number tested (Table 5).

[2] = system: mouse maximal electroshock (MES) model; assay: Mouse maximal electroshock (MES) model; assay type: in vivo; settings: animals protected from seizures / number tested
Description: as §1

[3] = system: VU0463271-induced phenotype (KCC2 inhibition) in zebrafish larvae; assay: animal or person; settings: for suppression score dose response compared with other compounds as suppressor of the hyperexcitability phenotype: zebrafish, FIG. 8 / FIG. 10
Description: To quantify the ability of the same drugs to reverse (or “rescue”) the phenotype caused by either 2.5 μM VU0463271 or 5 μM VU0240551, a rescue score between 0 (no rescue) and 1 (maximal theoretical rescue) was calculated (FIG. 2C). A rescue score incorporates and quantifies the degree of phenotypic reversal and the level of sedation in each concentration tested (see Materials and Methods below).
A diverse collection of 37,000 uncharacterized small molecules were used in a suppressor screen against either 2.5 μM VU0463271 (27,000 compounds) or 5 μM VU0240551 (10,000 compounds), along with 3,700 control wells treated with DMSO alone and 3,700 control wells treated with the KCC2 inhibitor. Each well of a 96-well plate containing at least about 8 zebrafish larvae was treated with a library compound or DMSO followed by treatment with the KCC2 inhibitor. Behavioral profiles pre- and post-treatment with the KCC2 inhibitor were evaluated using the behavioral assay battery described herein, and a detailed quantitative readout of about 15,000 time points was generated for each well. These behavioral profiles were used to calculate a screening score for each library compound, which incorporates and quantifies the rescue score and sedation index (see Materials and Methods).
In some cases, small molecules that alter the KCC2 inhibition phenotype may reverse the behavioral phenotype back to the normal, but could also elicit a new undesired phenotype, which is different from a normal behavior. To discriminate between these possibilities, vector algebra was used to compare each behavioral profile to the behavioral profile of DMSO-treated larvae and defined a value for the phenotypic distance from DMSO. The screen score of each compound was then plotted against its averaged phenotypic distance from DMSO (FIG. 3A) and MI (FIG. 3B) to filter out compounds that elicit a profile that is very different from the control one and compounds that reduce overall activity, respectively.
The reproducibility of the effects and the active concentration ranges of the 30 hits selected, as described above, were determined. Their rescue efficacies were retested in at least six concentrations and their rescue scores were also recalculated.
TT0023831 and six analogs were tested at a range of doses from 2.5-320 uM in a behavioral assay designed to assess the ability of compounds to suppress the effects of KCC2 inhibition. The graphs of FIG. 11 indicate the degree of suppression of the KCC2-inhibited phenotype, where a score of 1 represents complete restoration of KCC2-treated zebrafish to normal. […] Table 4 summarizes the estimated EC50 values and peak effect values for each compound.
A large number of fertilized zebrafish eggs (up to 20,000 embryos per day) were collected from group matings of wild type Ekkwill/Singapore zebrafish. Embryos were raised in hatching jars at 28° C. on a 14/10 hour light/dark cycle until 3 days post fertilization (dpf), then transferred to an incubator under the same conditions until 7 dpf. Groups of eight larvae (7 dpf) were distributed into the wells of a clear flat bottom square well 96-well plates filled with E3 medium (300 μl). Larvae were then incubated at 25° C. on the bench top for one-hour chemical treatment and subsequent experiments.
A library containing 37,000 uncharacterized small molecules was purchased from Life Chemicals and dissolved in DMSO at a stock concentration of 10 mM.

[4] = system: PTZ-induced behavior in zebrafish larvae; assay: Suppression of PTZ-induced behavior in zebrafish larvae; assay type: in vivo; settings: pre-treatment with 6 concentrations, then 5 mM PTZ
Description: Differences between behavioral profiles of larval zebrafish treated with KCC2 inhibitors and larval zebrafish treated with PTZ were investigated by evaluating the ability of traditional anti-seizure drugs to reverse their effects. Five drugs in at least six concentrations (by allocating 12 wells per concentration) were tested. These drugs included a benzodiazepine anxiolytic (diazepam), two AEDs that increase GABA levels in the synapse (tiagabine and valproate), a sodium channel blocker (phenytoin) and a synthetic neurosteroid GABAA positive allosteric modulator (PAM, ganaxolone).

Nav1.1 = Nav1.1 (Homo sapiens, UniProt P35498)
Nav1.2 = Nav1.2 (Homo sapiens, UniProt Q99250)
Sequence of Nav1.2 (Q99250 whole entry): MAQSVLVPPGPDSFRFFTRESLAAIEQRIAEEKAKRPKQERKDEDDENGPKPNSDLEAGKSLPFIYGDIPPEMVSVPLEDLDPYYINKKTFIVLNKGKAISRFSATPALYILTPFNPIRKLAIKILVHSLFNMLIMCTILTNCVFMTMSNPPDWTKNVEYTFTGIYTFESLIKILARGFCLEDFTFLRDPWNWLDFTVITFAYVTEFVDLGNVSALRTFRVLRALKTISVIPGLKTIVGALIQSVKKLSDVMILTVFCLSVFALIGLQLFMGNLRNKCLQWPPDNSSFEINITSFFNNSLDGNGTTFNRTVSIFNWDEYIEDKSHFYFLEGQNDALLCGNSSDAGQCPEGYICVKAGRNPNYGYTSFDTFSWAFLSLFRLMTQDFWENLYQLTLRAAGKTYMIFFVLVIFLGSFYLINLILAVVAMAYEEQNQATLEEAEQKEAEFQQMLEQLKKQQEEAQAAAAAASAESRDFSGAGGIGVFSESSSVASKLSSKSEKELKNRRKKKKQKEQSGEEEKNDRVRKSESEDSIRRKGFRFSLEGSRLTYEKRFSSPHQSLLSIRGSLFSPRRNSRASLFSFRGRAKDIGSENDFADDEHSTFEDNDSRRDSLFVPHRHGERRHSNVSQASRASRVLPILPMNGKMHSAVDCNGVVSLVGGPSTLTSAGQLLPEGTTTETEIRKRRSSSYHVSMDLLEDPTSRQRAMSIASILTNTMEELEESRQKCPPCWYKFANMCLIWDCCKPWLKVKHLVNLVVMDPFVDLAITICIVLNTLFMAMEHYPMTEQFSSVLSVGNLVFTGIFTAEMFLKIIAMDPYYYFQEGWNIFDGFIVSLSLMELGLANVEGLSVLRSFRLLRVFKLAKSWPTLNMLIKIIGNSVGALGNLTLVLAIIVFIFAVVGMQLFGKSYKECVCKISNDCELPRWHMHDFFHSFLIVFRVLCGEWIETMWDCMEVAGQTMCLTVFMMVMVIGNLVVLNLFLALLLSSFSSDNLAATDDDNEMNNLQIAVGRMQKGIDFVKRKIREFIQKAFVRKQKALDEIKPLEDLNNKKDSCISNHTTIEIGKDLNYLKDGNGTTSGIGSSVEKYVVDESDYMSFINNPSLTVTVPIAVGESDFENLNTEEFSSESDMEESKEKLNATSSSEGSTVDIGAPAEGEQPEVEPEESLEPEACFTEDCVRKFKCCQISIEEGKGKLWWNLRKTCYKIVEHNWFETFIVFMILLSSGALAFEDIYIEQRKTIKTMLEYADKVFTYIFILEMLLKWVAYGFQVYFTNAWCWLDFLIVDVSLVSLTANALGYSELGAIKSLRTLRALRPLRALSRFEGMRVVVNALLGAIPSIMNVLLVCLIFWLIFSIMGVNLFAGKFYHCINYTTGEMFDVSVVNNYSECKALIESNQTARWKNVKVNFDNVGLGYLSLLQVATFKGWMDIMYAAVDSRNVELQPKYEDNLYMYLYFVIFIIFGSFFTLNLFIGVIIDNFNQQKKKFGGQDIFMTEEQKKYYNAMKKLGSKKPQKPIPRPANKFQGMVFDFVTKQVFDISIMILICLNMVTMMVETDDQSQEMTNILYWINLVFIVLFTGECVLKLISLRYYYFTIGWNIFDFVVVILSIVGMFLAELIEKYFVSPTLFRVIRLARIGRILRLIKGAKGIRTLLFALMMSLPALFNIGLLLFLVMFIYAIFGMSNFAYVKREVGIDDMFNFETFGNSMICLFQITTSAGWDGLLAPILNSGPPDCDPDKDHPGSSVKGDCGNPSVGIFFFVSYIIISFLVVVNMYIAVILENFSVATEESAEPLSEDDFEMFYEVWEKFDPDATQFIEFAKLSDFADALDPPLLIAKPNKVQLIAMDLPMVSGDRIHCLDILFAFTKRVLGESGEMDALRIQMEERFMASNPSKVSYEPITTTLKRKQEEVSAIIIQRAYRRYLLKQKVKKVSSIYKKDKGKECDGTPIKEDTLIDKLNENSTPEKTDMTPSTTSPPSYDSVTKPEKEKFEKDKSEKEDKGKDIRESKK

Nav1.6 = Nav1.6 (Homo sapiens, UniProt Q9UQD0)
Sequence of Nav1.6 (Q9UQD0 whole entry): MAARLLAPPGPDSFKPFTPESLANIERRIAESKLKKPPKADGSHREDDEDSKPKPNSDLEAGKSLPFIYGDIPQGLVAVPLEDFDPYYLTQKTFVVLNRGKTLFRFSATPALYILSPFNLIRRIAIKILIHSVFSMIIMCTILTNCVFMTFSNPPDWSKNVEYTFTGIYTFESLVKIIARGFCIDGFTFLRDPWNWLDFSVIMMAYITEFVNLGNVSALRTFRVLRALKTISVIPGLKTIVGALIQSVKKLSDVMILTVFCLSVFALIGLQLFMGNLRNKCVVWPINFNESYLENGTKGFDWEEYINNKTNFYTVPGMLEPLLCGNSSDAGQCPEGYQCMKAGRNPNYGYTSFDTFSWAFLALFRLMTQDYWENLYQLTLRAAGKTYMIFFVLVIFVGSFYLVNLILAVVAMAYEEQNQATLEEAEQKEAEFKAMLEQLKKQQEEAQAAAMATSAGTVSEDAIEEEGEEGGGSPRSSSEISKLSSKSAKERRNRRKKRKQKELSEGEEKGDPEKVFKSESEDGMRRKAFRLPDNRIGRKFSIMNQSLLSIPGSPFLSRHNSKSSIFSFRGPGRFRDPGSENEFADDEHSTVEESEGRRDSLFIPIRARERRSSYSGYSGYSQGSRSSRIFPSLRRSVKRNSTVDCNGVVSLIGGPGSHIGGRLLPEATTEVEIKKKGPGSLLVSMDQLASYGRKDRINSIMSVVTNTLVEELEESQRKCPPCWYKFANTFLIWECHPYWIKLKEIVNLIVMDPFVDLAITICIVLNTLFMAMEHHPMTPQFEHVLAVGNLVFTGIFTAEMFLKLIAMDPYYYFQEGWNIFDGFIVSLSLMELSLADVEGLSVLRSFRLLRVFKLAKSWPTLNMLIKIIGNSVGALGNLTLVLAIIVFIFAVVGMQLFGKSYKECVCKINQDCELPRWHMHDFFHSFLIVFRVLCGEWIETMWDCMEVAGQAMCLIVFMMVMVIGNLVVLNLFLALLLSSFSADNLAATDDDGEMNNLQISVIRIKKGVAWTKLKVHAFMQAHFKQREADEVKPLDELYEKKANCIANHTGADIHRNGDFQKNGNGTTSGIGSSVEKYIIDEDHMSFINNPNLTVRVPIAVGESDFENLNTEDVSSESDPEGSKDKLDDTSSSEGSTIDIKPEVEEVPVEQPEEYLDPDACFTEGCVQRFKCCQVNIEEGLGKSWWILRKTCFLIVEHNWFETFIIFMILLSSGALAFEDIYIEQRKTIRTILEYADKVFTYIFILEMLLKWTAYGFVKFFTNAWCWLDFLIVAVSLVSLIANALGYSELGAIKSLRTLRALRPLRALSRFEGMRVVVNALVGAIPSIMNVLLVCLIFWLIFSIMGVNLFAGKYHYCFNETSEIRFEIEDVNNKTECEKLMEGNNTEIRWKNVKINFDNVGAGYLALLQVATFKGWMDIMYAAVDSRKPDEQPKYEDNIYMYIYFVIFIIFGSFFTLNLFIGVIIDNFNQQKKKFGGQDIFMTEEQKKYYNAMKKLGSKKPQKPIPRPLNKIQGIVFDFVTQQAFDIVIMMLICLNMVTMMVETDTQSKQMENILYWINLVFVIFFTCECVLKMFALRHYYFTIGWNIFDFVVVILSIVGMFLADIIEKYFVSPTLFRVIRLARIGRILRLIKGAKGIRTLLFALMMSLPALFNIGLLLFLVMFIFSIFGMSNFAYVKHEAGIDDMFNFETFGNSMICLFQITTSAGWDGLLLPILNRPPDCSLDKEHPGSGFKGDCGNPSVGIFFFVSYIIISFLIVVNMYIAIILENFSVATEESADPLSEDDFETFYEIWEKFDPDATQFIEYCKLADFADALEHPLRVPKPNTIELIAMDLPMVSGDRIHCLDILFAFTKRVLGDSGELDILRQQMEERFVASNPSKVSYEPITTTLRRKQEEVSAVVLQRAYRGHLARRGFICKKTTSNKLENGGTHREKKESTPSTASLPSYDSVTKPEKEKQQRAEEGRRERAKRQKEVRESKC

[5] = system: VU0240551-induced phenotype (KCC2 inhibition) in zebrafish larvae
[6] = 10-point CRC, TT002381 to a maximum of 100 μM

Compound | effect on GABAA-mediated currents [1] | firing rates of the cultured neurons [1] | spike initiation [1] | input resistant ([1]; 30 μM) | number of open channels (open at rest) ([1]; 30 μM) | Rescued (6 Hz model) (mouse 6 Hz 44 mA model; 100 mg/kg) | Rescued (MES model) ([2]; 10 mg/kg) | Rescued (MES model) ([2]; 30 mg/kg) | Rescued (MES model) ([2]; 100 mg/kg) | suppression score dose response compared with other compounds as suppressor of the hyperexcitability phenotype [3] | suppression of PTZ-induced hyperactivity in response to the different stimuli [4] | inhibition of Nav1.1 (Nav1.1; [6]) | inhibition of Nav1.2 (Nav1.2; [6]) | inhibition of Nav1.6 (Nav1.6; [6]) | further results
C1CCc2nnnn2CC1 [PTZ, pentylentetrazol] |  |  |  |  |  |  |  |  |  |  |  |  |  |  | activity and MI in response to multiple light and acoustic stimuli (zebrafish larvae): induced hyperactivity
CCCOc1nn(CCC)cc1C(=O)Nc1ccc(C(F)(F)F)cc1 [TT0042607, 3-propoxy-1-propyl-N-(4-(trifluoromethyl)phen-yl)-1H-pyrazole-4-carboxamide] | neither TT0023831 nor TT0042607 appeared to have an effect | reduced the firing rates | delayed spike initiation | reduced | reduced | 1/4 | 0/4 | 0/4 | 2/4 | outperform both tiagabine and valproic acid | attenuated |  |  |  | upstroke and repolarization ([1]; 30 μM): slowed; Rescued (6 Hz model) (mouse 6 Hz 44 mA model; 10 mg/kg): 0/4; Rescued (6 Hz model) (mouse 6 Hz 44 mA model; 30 mg/kg): 0/4; effect on the overall MI ([3]; sub-micromolar or higher concentrations (tested 0.08-2.5 μM)): no effect; rescue of VU0463271-induced behaviors ([3]; tested at 0.08-2.5 μM, already at sub-micromolar concentrations): rescued
NC1=N[C@H](O)[C@H]2[C@H]3O[C@]4(O)O[C@@H]([C@@H](O)[C@@]2(N1)[C@@H]4O)[C@]3(O)CO [TTX, tetrodotoxin] |  |  |  |  |  |  |  |  |  |  |  |  |  |  | inhibition of Nav1.1 (Nav1.1): concentration-dependent inhibition; inhibition of Nav1.2 (Nav1.2): concentration-dependent inhibition; inhibition of Nav1.6 (Nav1.6): concentration-dependent inhibition
COc1cc(C)c(C(C)C)cc1S(=O)(=O)NCCN1CCOCC1 [TT0023831, 5-isopropyl-2-methoxy-4-methyl-N-(2-morpholinoethyl)benzene-sulfonamide] | neither TT0023831 nor TT0042607 appeared to have an effect | reduced the firing rates | delayed spike initiation | without changing | without affecting | 3/8 | 0/4 | 2/4 | 2/4 | outperform both tiagabine and valproic acid | did not | concentration-dependent inhibition | concentration-dependent inhibition | concentration-dependent inhibition | action potential threshold ([1]; 30 μM): raising; rheobase ([1]; 30 μM): increased; Rescued (6 Hz model) (mouse 6 Hz 44 mA model; 50 mg/kg): 0/8; Rescued (6 Hz model) (mouse 6 Hz 44 mA model; 200 mg/kg): 7/8; overall motor activity of the larvae ([3]; 80 μM, reduced the rescue score): reduced the overall motor activity; EC50 ([3]; Danio rerio, read-out: in vivo EC50): 5 µM; peak activity ([3]; concentration of peak effect, doses 2.5-320 uM, suppression of KCC2-inhibited phenotype in zebrafish): 20 µM; concentration of best phenotypic reversal ([3]; tested at 2.5-80 μM, high rescue scores): 20 µM and 40 µM
Cc1ccc(-c2nc(N3CCOCC3)sc2C(=O)NCC2CCCO2)cc1 (stereo not drawn) [TT0011235] |  |  |  |  |  |  |  |  |  |  | attenuated |  |  |  | EGABA values ([1]; perfusion of 30 μM): shifted; GABAA-mediated currents (muscimol-activated and endogenous post-synaptic potentials) ([1]; perfusion of 30 μM): potentiated; effect on overall MI ([5]; at concentrations higher than 20 μM): inhibitory effect; concentration of most effective phenotypic reversal ([5]; tested at 2.5-80 μM): 20 µM; rescue of VU0240551-induced behaviors ([5]; tested at 2.5-80 μM): rescued
CCCCNc1ccc(C(=O)OCCN(C)C)cc1 [tetracaine] |  |  |  |  |  |  |  |  |  |  |  | concentration-dependent inhibition | concentration-dependent inhibition | concentration-dependent inhibition | 
